Results on 33 compounds are retold here after ChEMBL document CHEMBL1138371, “Discovery of low nanomolar non-hydroxamate inhibitors of tumor necrosis factor-alpha converting enzyme (TACE)” (Bioorg Med Chem Lett, 2007).

Experiment [1] deals with Disintegrin and metalloproteinase domain-containing protein 17 (Sus scrofa, UniProt O77636). Put plainly: Inhibition of porcine TACE.
Experiment [2] concerns the target 72 kDa type IV collagenase (Homo sapiens, UniProt P08253). Put plainly: Inhibition of MMP2.
Experiment [3] has as its target Macrophage metalloelastase (Homo sapiens, UniProt P39900). Put plainly: Inhibition of MMP12.
Experiment [4] deals with Blood. Put plainly: Inhibition of LPS-stimulated TNFalpha production in human whole blood. It counts as functional, tissue-based.
Experiment [5] deals with T1, Matrilysin (Homo sapiens, UniProt P09237).
T1 sequence (P09237 whole entry): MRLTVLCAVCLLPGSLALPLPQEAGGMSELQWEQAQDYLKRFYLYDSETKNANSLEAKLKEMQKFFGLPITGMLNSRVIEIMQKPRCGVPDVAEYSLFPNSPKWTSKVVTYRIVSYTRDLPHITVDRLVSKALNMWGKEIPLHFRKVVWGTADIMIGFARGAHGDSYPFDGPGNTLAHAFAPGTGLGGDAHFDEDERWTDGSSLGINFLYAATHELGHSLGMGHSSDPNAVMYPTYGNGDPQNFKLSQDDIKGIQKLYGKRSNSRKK
Put plainly: Inhibition of MMP7.

The species entered for experiment [6] is Homo sapiens. Put plainly: Inhibition of aggrecanase at 1 uM.
Experiment [7] deals with Stromelysin-1 (Homo sapiens, UniProt P08254). Put plainly: Inhibition of MMP3.
Sequence of Stromelysin-1 (P08254 whole entry): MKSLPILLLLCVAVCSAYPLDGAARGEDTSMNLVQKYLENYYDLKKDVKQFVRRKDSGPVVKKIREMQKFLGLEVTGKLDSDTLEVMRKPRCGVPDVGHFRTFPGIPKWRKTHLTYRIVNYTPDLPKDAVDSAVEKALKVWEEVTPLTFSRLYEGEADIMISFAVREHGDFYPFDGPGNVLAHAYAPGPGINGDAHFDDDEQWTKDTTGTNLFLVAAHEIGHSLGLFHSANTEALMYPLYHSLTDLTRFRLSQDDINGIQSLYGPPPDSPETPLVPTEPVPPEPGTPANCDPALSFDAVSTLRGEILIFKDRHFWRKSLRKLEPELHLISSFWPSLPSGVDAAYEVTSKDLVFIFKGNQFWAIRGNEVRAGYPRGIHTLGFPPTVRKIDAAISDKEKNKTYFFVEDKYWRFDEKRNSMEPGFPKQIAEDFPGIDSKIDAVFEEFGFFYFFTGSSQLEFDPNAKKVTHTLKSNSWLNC

Molecules are shown by their SMILES. pIC50, pKi: −log10 of the molar value. Some results are limits rather than exact numbers.

Sequence of 72 kDa type IV collagenase (P08253 whole entry): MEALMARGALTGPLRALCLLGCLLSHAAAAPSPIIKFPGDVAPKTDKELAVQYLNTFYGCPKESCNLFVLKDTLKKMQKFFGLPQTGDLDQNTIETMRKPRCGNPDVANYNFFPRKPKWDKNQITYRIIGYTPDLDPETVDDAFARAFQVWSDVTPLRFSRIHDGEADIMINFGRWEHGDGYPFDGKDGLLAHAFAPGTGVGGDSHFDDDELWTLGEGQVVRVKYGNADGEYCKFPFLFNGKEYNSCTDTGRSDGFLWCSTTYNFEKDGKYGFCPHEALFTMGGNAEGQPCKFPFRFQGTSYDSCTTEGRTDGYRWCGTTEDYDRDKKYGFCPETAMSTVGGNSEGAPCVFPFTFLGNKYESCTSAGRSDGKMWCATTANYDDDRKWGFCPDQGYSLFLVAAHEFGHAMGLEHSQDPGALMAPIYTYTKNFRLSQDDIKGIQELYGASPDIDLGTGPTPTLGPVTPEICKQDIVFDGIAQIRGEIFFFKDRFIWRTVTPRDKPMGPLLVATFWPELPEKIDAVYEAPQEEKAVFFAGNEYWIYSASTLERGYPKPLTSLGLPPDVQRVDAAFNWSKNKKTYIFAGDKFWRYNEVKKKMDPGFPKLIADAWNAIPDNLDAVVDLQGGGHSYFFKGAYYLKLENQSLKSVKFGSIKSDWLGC
Sequence of Disintegrin and metalloproteinase domain-containing protein 17 (O77636 whole entry, the tested form may be a part): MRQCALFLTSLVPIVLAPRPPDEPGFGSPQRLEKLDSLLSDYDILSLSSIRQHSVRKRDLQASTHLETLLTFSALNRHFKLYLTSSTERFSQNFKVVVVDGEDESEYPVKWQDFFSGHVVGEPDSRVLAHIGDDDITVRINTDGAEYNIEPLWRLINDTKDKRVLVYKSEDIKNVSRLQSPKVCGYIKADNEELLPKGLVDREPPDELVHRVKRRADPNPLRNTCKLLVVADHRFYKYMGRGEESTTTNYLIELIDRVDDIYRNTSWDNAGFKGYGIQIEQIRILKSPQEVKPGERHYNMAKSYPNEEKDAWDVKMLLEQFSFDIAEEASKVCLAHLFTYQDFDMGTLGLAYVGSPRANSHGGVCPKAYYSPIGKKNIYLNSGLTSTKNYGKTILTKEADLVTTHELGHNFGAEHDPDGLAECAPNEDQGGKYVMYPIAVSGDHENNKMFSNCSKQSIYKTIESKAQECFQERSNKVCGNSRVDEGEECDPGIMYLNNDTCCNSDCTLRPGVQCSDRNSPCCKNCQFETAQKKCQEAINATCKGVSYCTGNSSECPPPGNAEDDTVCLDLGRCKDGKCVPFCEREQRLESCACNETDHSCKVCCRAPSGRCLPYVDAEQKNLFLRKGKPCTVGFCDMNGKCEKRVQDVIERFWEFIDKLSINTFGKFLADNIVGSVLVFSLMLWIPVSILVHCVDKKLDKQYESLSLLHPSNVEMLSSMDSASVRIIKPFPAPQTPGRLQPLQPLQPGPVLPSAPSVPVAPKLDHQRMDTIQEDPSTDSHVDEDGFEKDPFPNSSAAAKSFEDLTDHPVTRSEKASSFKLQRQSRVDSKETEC
Sequence of Macrophage metalloelastase (P39900 whole entry): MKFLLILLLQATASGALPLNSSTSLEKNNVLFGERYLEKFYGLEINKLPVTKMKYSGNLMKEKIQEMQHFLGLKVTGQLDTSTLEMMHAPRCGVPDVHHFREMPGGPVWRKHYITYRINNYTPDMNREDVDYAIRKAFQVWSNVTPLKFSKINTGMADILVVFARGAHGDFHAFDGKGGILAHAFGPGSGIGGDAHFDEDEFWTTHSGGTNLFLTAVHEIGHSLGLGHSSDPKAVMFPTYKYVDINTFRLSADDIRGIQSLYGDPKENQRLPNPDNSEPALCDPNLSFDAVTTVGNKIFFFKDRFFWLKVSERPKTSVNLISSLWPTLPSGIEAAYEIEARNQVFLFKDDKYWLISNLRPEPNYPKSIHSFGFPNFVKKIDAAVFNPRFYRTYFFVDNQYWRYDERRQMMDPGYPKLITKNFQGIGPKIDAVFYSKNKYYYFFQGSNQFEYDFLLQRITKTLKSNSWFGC

The term pIC50 denotes the IC50 on a negative log10 scale, so that one unit is a factor of ten. Lower therefore signals a large IC50. A word on the pKi: it is the negative decadic logarithm of the Ki, by convention in mol/L. One may read the inhibition as the share of the control response that was lost under treatment. `Cc1cc(COc2ccc(C(=O)NCC3(C4CCN(C(=O)OC(C)(C)C)CC4)C(=O)NC(=O)NC3=O)cc2)c2ccccc2n1`: the pIC50 in experiment [1] was 7.33; in experiment [4], 4.46. For the same compound, the pKi in experiment [2] is less than 5.48; in experiment [3], less than 5.22; in experiment [5], less than 5.20; in experiment [7] it was less than 5.35. In experiment [6], the inhibition was determined as 0%.
`Cc1cc(COc2ccc(C3(C)C(=O)NC(=O)NC3=O)cc2)c2ccccc2n1` gave a negative-log IC50 (pIC50) in experiment [1] of 5.99.
`Cc1cc(COc2ccc(C(=O)NCC3(C4CCN(C(C)C)CC4)C(=O)NC(=O)NC3=O)cc2)c2ccccc2n1`: the pIC50 is 7.28 in experiment [1] and less than 4.30 in experiment [4]. Moreover, the pKi is less than 5.48 in experiment [2], less than 5.22 in experiment [3], less than 5.20 in experiment [5] and less than 5.35 in experiment [7]. In experiment [6], the inhibition was 21%.
With `Cc1cc(COc2ccc(CC3(C)C(=O)NC(=O)NC3=O)cc2)c2ccccc2n1`, in experiment [1], the negative logarithm of the IC50 (pIC50) is 5.66.
Regarding `Cc1cc(COc2ccc(C(=O)NCC3(Cc4ccccc4)C(=O)NC(=O)NC3=O)cc2)c2ccccc2n1`, the negative-log IC50 (pIC50) is 7.74 in experiment [1] and less than 4.30 in experiment [4]. Also, the negative logarithm of the Ki (pKi) in experiment [2] was 6.43; in experiment [3], 6.41; in experiment [5], less than 5.20; in experiment [7], 5.43. The compound also had an inhibition in experiment [6] of 34%.
`Cc1cc(COc2ccc(C(=O)NCC3(C4CCN(S(C)(=O)=O)CC4)C(=O)NC(=O)NC3=O)cc2)c2ccccc2n1`: the pIC50 in experiment [1] was 7.54; in experiment [4], less than 4.30. The negative-log Ki (pKi) in experiment [2] was less than 5.48; in experiment [3] it was less than 5.22; in experiment [5], less than 5.20; in experiment [7] it was less than 5.35. For the same compound, in experiment [6], the inhibition was 36%.
With `Cc1cc(COc2ccc(CCC3(C)C(=O)NC(=O)NC3=O)cc2)c2ccccc2n1`, in experiment [1], the pIC50 was 4.31.
Same read-out and setting: the value for `Cc1cc(COc2ccc(C(=O)NC(c3ccncc3)C3(C)C(=O)NC(=O)NC3=O)cc2)c2ccccc2n1` (stereo not drawn) was 5.63.
For `Cc1cc(COc2ccc(C(=O)NC3CCCCC34C(=O)NC(=O)NC4=O)cc2)c2ccccc2n1` (stereo not drawn), in experiment [1], the negative-log IC50 (pIC50) is 6.86. The same compound showed a negative logarithm of the Ki (pKi) in experiment [2] of 6.96. The inhibition in experiment [6] turned out to be 29%.
For the compound `Cc1cc(COc2ccc(C(=O)CCC3(C)C(=O)NC(=O)NC3=O)cc2)c2ccccc2n1`, the negative-log IC50 (pIC50) in experiment [1] was 6.10.
With `Cc1cc(COc2ccc(C(=O)NCC3(C4CCNCC4)C(=O)NC(=O)NC3=O)cc2)c2ccccc2n1`, the negative-log IC50 (pIC50) was 7.26 in experiment [1] and 4.31 in experiment [4]. Moreover, the negative logarithm of the Ki (pKi) in experiment [2] was less than 5.48; in experiment [3], less than 5.22; in experiment [5], less than 5.20; in experiment [7] it was less than 5.35. Moreover, the inhibition in experiment [6] is 1%.
With `Cc1cc(COc2ccc(C(=O)NCC3(N4CCN(C(=O)c5cccnc5)CC4)C(=O)NC(=O)NC3=O)cc2)c2ccccc2n1`, the pIC50 in experiment [1] is 8.00; in experiment [4], 4.37. Also, the pKi is less than 5.48 in experiment [2], 5.33 in experiment [3], less than 5.20 in experiment [5] and less than 5.35 in experiment [7]. In experiment [6], this compound had an inhibition of 36%.
`Cc1cc(COc2ccc(NC(=O)CC3(C)C(=O)NC(=O)NC3=O)cc2)c2ccccc2n1` gave a negative logarithm of the IC50 (pIC50) in experiment [1] of 4.92.
Turning to `Cc1cc(COc2ccc(C(=O)NCC3(C(C)C)C(=O)NC(=O)NC3=O)cc2)c2ccccc2n1`, the pIC50 in experiment [1] was 7.72; in experiment [4] it was less than 4.30. Also, the pKi was 6.03 in experiment [2], less than 5.22 in experiment [3], less than 5.20 in experiment [5] and less than 5.35 in experiment [7]. The inhibition in experiment [6] was 11%.
For the compound `Cc1cc(COc2ccc(C(=O)NC3CCCC34C(=O)NC(=O)NC4=O)cc2)c2ccccc2n1` (stereo not drawn), the negative logarithm of the IC50 (pIC50) in experiment [1] is 7.62; in experiment [4], less than 4.30. Besides, in experiment [2], the pKi is less than 5.48. Moreover, in experiment [6], the inhibition turned out to be 0%.
With `Cc1cc(COc2ccc(C(=O)NC3(C)C(=O)NC(=O)NC3=O)cc2)c2ccccc2n1`, in experiment [1], the negative-log IC50 (pIC50) is less than 4.00.
Consider `Cc1cc(COc2ccc(C(=O)NCC3(N4CCN(Cc5ccccc5)CC4)C(=O)NC(=O)NC3=O)cc2)c2ccccc2n1`, for which the figures for the pIC50 in experiment [1] and in experiment [4] were 7.85 and less than 4.30, respectively. The pKi in experiment [2] is 5.57; in experiment [3], 5.39; in experiment [5], less than 5.20; in experiment [7], less than 5.35. In experiment [6], this compound displayed an inhibition of 22%.
As to `Cc1cc(COc2ccc(/C=C/CC3(C)C(=O)NC(=O)NC3=O)cc2)c2ccccc2n1`, the negative-log IC50 (pIC50) in experiment [1] was 4.96.
As to `Cc1cc(COc2ccc(C(=O)NC3CN(C(=O)C(C)(C)C)CC34C(=O)NC(=O)NC4=O)cc2)c2ccccc2n1` (stereo not drawn), the values for the pIC50 in experiment [1] and in experiment [4] were 6.95 and less than 4.30, respectively. Also, the pKi in experiment [2] is less than 5.48; in experiment [3], less than 5.22; in experiment [5] it was less than 5.20; in experiment [7], less than 5.35. Also, in experiment [6], the inhibition is 53%.
In the case of `Cc1cc(COc2ccc(C(=O)NCC3(N4CCN(S(C)(=O)=O)CC4)C(=O)NC(=O)NC3=O)cc2)c2ccccc2n1`, the values for the negative logarithm of the IC50 (pIC50) in experiment [1] and in experiment [4] were 8.70 and less than 4.30, respectively. In addition, the pKi in experiment [2] is 5.66; in experiment [3] it was 5.99; in experiment [5], less than 5.20; in experiment [7], less than 5.35. This compound registered an inhibition in experiment [6] of 11%.
Take `Cc1cc(COc2ccc(C(=O)NCC3(N4CCN(C)CC4)C(=O)NC(=O)NC3=O)cc2)c2ccccc2n1`: the figures for the pIC50 in experiment [1] and in experiment [4] were 7.24 and less than 4.30, respectively. In addition, the pKi in experiment [2] was less than 5.48; in experiment [3], less than 5.22; in experiment [5], less than 5.20; in experiment [7], less than 5.35. The inhibition in experiment [6] came out at 21%.
The compound `Cc1cc(COc2ccc(OC3(C)C(=O)NC(=O)NC3=O)cc2)c2ccccc2n1` had a pIC50 in experiment [1] of 5.89.
Still for that read-out and setting: then `Cc1cc(COc2ccc(CCCC3(C)C(=O)NC(=O)NC3=O)cc2)c2ccccc2n1`, with less than 4.00.
As to `C#CCN1CCN(C2(CNC(=O)c3ccc(OCc4cc(C)nc5ccccc45)cc3)C(=O)NC(=O)NC2=O)CC1`, the results for the negative logarithm of the IC50 (pIC50) in experiment [1] and in experiment [4] were 7.21 and less than 4.30, respectively. Further, the pKi was less than 5.48 in experiment [2], less than 5.22 in experiment [3], less than 5.20 in experiment [5] and less than 5.35 in experiment [7]. Moreover, the inhibition in experiment [6] came to 26%.
For the compound `CC(=O)N1CCN(C2(CNC(=O)c3ccc(OCc4cc(C)nc5ccccc45)cc3)C(=O)NC(=O)NC2=O)CC1`, the pIC50 is 8.30 in experiment [1] and less than 4.30 in experiment [4]. Moreover, the pKi in experiment [2] was less than 5.48; in experiment [3], less than 5.22; in experiment [5], less than 5.20; in experiment [7], less than 5.35. In experiment [6], the inhibition was 21%.
On to `Cc1cc(COc2ccc(C(=O)NCC3(N4CCN(C(=O)C(C)(C)C)CC4)C(=O)NC(=O)NC3=O)cc2)c2ccccc2n1`, for which the pIC50 in experiment [1] was 7.54; in experiment [4] it was 4.42. Further, the pKi was 7.70 in experiment [2], 7.30 in experiment [3], less than 5.20 in experiment [5] and less than 5.35 in experiment [7]. Besides, in experiment [6], the inhibition turned out to be 7%.
Take `Cc1cc(COc2ccc(C(=O)NCC3(N4CCN(C(C)C)CC4)C(=O)NC(=O)NC3=O)cc2)c2ccccc2n1`: the negative-log IC50 (pIC50) in experiment [1] was 8.15; in experiment [4], less than 4.30. The negative-log Ki (pKi) in experiment [2] was less than 5.48; in experiment [3], less than 5.22; in experiment [5], less than 5.20; in experiment [7], less than 5.35. The inhibition in experiment [6] is 20%.
For `CCC1(CNC(=O)c2ccc(OCc3cc(C)nc4ccccc34)cc2)C(=O)NC(=O)NC1=O`, the figures for the negative-log IC50 (pIC50) in experiment [1] and in experiment [4] were 7.80 and less than 4.30, respectively. Also, the pKi in experiment [2] was 6.70; in experiment [3], 6.68; in experiment [5] it was less than 5.20; in experiment [7], less than 5.35. In experiment [6], this compound showed an inhibition of 18%.
`Cc1cc(COc2ccc(C(=O)NCC3(C4CCN(C(=O)C(C)(C)C)CC4)C(=O)NC(=O)NC3=O)cc2)c2ccccc2n1`: the pIC50 in experiment [1] was 7.89; in experiment [4] it was 4.41. For the same compound, the negative logarithm of the Ki (pKi) was less than 5.48 in experiment [2], less than 5.22 in experiment [3], less than 5.20 in experiment [5] and less than 5.35 in experiment [7]. The inhibition in experiment [6] was 10%.
Take `Cc1cc(COc2ccc(CC(=O)NCC3(C)C(=O)NC(=O)NC3=O)cc2)c2ccccc2n1`: the pIC50 in experiment [1] is less than 4.00.
`Cc1cc(COc2ccc(C(=O)NCC3(C4CCN(C)CC4)C(=O)NC(=O)NC3=O)cc2)c2ccccc2n1`: the negative-log IC50 (pIC50) in experiment [1] was 7.24; in experiment [4], less than 4.30. The negative logarithm of the Ki (pKi) in experiment [2] was less than 5.48; in experiment [3], less than 5.22; in experiment [5], less than 5.20; in experiment [7] it was less than 5.35. In experiment [6], this compound had an inhibition of 15%.
Take `Cc1cc(COc2ccc(C(=O)NCC3(C4CCN(C5CCOCC5)CC4)C(=O)NC(=O)NC3=O)cc2)c2ccccc2n1`: the negative-log IC50 (pIC50) is 7.51 in experiment [1] and less than 4.30 in experiment [4]. For the same compound, the negative-log Ki (pKi) in experiment [2] is less than 5.48; in experiment [3] it was less than 5.22; in experiment [5], less than 5.20; in experiment [7], less than 5.35. The inhibition in experiment [6] was 5%.
For the compound `Cc1cc(COc2ccc(C(=O)NCC3(NC(=O)OC(C)(C)C)C(=O)NC(=O)NC3=O)cc2)c2ccccc2n1`, the negative logarithm of the IC50 (pIC50) was 7.89 in experiment [1] and less than 4.30 in experiment [4]. Besides, the pKi was less than 5.48 in experiment [2], less than 5.22 in experiment [3], less than 5.20 in experiment [5] and less than 5.35 in experiment [7]. This compound displayed an inhibition in experiment [6] of 16%.
